Data: patent publication US12077503B2, “Substituted cyclic amides and their use as herbicides” (FMC CORPORATION, priority 2015, dated 2024)

Legend:
Format in all cases: in vivo
[1] = tested on: barnyardgrass (Echinochloa crus-galli); experiment: Test G Pre-Emergence Protocol; details: Echinochloa crus-galli, pre-emergence, 312 h, evaluated after 13 days; for pest or weed control at 15.625 g/ha: 15.625 g ai/ha; for pest or weed control at 15.625 g/ha / pest or weed control at 250 g/ha: read-out: Barnyardgrass damage rating (100=total damage to plant; 0=no damage to plant); for pest or weed control at 62.5 g/ha: 62.5 g ai/ha, 100=total damage to plant, 0=no damage to plant, read-out: Barnyardgrass damage rating; for pest or weed control at 250 g/ha: 250 g ai/ha
Procedure, shortened: (§1)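 Seeds were sown in standard soil and kept one day in a glasshouse (24/16° C day/night, 14 h light, 65% humidity), then sprayed with compound in acetone/water (50:50) containing 0.5% Tween 20 at 15.625, 62.5 or 250 g/ha. Damage was scored after 13 days (0 = none, 100 = total).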

corn (Zea mays) [2] = experiment: Test G Pre-Emergence Protocol; details: Zea mays, pre-emergence, 312 h, evaluated after 13 days; for plant injury at 15.625 g/ha: 15.625 g ai/ha; for plant injury at 15.625 g/ha / plant injury at 250 g/ha: read-out: Corn damage rating (100=total damage to plant; 0=no damage to plant); for plant injury at 62.5 g/ha: 62.5 g ai/ha, 100=total damage to plant, 0=no damage to plant, read-out: Corn damage rating; for plant injury at 250 g/ha: 250 g ai/ha
Procedure, shortened: as §1

[3] = tested on: giant foxtail (Setaria faberi); experiment: Test G Pre-Emergence Protocol; details: Setaria faberi, pre-emergence, 312 h, evaluated after 13 days; for pest or weed control at 15.625 g/ha: 15.625 g ai/ha; for pest or weed control at 15.625 g/ha / pest or weed control at 250 g/ha: read-out: Foxtail, Giant damage rating (100=total damage to plant; 0=no damage to plant); for pest or weed control at 62.5 g/ha: 62.5 g ai/ha, 100=total damage to plant, 0=no damage to plant, read-out: Foxtail, Giant damage rating; for pest or weed control at 250 g/ha: 250 g ai/ha
Procedure, shortened: as §1

[4] = tested on: ivy-leaved morning glory (Ipomoea hederacea); experiment: Test G Pre-Emergence Protocol; details: Ipomoea, pre-emergence, 312 h, evaluated after 13 days; for pest or weed control at 15.625 g/ha: 15.625 g ai/ha; for pest or weed control at 15.625 g/ha / pest or weed control at 250 g/ha: read-out: Morningglory, Ivy-leaved damage rating (100=total damage to plant; 0=no damage to plant); for pest or weed control at 62.5 g/ha: 62.5 g ai/ha, 100=total damage to plant, 0=no damage to plant, read-out: Morningglory, Ivy-leaved damage rating; for pest or weed control at 250 g/ha: 250 g ai/ha
Procedure, shortened: as §1

[5] = tested on: redroot pigweed (Amaranthus retroflexus); experiment: Test G Pre-Emergence Protocol; details: Amaranthus retroflexus, pre-emergence, 312 h, evaluated after 13 days; for pest or weed control at 15.625 g/ha: 15.625 g ai/ha; for pest or weed control at 15.625 g/ha / pest or weed control at 250 g/ha: read-out: Pigweed, Redroot damage rating (100=total damage to plant; 0=no damage to plant); for pest or weed control at 62.5 g/ha: 62.5 g ai/ha, 100=total damage to plant, 0=no damage to plant, read-out: Pigweed, Redroot damage rating; for pest or weed control at 250 g/ha: 250 g ai/ha
Procedure, shortened: as §1

[6] = tested on: velvetleaf (Abutilon theophrasti); experiment: Test G Pre-Emergence Protocol; details: Abutilon theophrasti, pre-emergence, 312 h, evaluated after 13 days; for pest or weed control at 15.625 g/ha: 15.625 g ai/ha; for pest or weed control at 15.625 g/ha / pest or weed control at 250 g/ha: read-out: Velvetleaf damage rating (100=total damage to plant; 0=no damage to plant); for pest or weed control at 62.5 g/ha: 62.5 g ai/ha, 100=total damage to plant, 0=no damage to plant, read-out: Velvetleaf damage rating; for pest or weed control at 250 g/ha: 250 g ai/ha
Procedure, shortened: as §1

[7] = tested on: barnyardgrass (Echinochloa crus-galli); experiment: Test G Post-Emergence Protocol; details: Echinochloa crus-galli, post-emergence, 312 h, read-out: Barnyardgrass damage rating; for pest or weed control at 15.625 g/ha: 15.625 g ai/ha, evaluated after 13 days (100=total damage to plant; 0=no damage to plant); for pest or weed control at 62.5 g/ha: 62.5 g ai/ha; for pest or weed control at 62.5 g/ha / pest or weed control at 250 g/ha: evaluated after 13 days, 100=total damage to plant, 0=no damage to plant; for pest or weed control at 250 g/ha: 250 g ai/ha
Procedure, shortened: (§2)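 Damage was rated 13 days after treatment from 0 (none) to 100 (plant killed). Compound was applied as a spray at 15.625, 62.5 or 250 g/ha in 50:50 acetone/water containing 0.5% Tween 20, onto 8-day-old potted plants kept in a glasshouse (24/16 °C, 14 h light, 65% humidity).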

corn (Zea mays) [8] = experiment: Test G Post-Emergence Protocol; details: Zea mays, post-emergence, 312 h, read-out: Corn damage rating; for plant injury at 15.625 g/ha: 15.625 g ai/ha, evaluated after 13 days (100=total damage to plant; 0=no damage to plant); for plant injury at 62.5 g/ha: 62.5 g ai/ha; for plant injury at 62.5 g/ha / plant injury at 250 g/ha: evaluated after 13 days, 100=total damage to plant, 0=no damage to plant; for plant injury at 250 g/ha: 250 g ai/ha
Procedure, shortened: as §2

[9] = tested on: giant foxtail (Setaria faberi); experiment: Test G Post-Emergence Protocol; details: Setaria faberi, post-emergence, 312 h, read-out: Foxtail, Giant damage rating; for pest or weed control at 15.625 g/ha: 15.625 g ai/ha, evaluated after 13 days (100=total damage to plant; 0=no damage to plant); for pest or weed control at 62.5 g/ha: 62.5 g ai/ha; for pest or weed control at 62.5 g/ha / pest or weed control at 250 g/ha: evaluated after 13 days, 100=total damage to plant, 0=no damage to plant; for pest or weed control at 250 g/ha: 250 g ai/ha
Procedure, shortened: as §2

[10] = tested on: ivy-leaved morning glory (Ipomoea hederacea); experiment: Test G Post-Emergence Protocol; details: Ipomoea, post-emergence, 312 h, read-out: Morningglory, Ivy-leaved damage rating; for pest or weed control at 15.625 g/ha: 15.625 g ai/ha, evaluated after 13 days (100=total damage to plant; 0=no damage to plant); for pest or weed control at 62.5 g/ha: 62.5 g ai/ha; for pest or weed control at 62.5 g/ha / pest or weed control at 250 g/ha: evaluated after 13 days, 100=total damage to plant, 0=no damage to plant; for pest or weed control at 250 g/ha: 250 g ai/ha
Procedure, shortened: as §2

[11] = tested on: redroot pigweed (Amaranthus retroflexus); experiment: Test G Post-Emergence Protocol; details: Amaranthus retroflexus, post-emergence, 312 h, read-out: Pigweed, Redroot damage rating; for pest or weed control at 15.625 g/ha: 15.625 g ai/ha, evaluated after 13 days (100=total damage to plant; 0=no damage to plant); for pest or weed control at 62.5 g/ha: 62.5 g ai/ha; for pest or weed control at 62.5 g/ha / pest or weed control at 250 g/ha: evaluated after 13 days, 100=total damage to plant, 0=no damage to plant; for pest or weed control at 250 g/ha: 250 g ai/ha
Procedure, shortened: as §2

[12] = tested on: velvetleaf (Abutilon theophrasti); experiment: Test G Post-Emergence Protocol; details: Abutilon theophrasti, post-emergence, 312 h, read-out: Velvetleaf damage rating; for pest or weed control at 15.625 g/ha: 15.625 g ai/ha, evaluated after 13 days (100=total damage to plant; 0=no damage to plant); for pest or weed control at 62.5 g/ha: 62.5 g ai/ha; for pest or weed control at 62.5 g/ha / pest or weed control at 250 g/ha: evaluated after 13 days, 100=total damage to plant, 0=no damage to plant; for pest or weed control at 250 g/ha: 250 g ai/ha
Procedure, shortened: as §2

SMILES | pest or weed control at 15.625 g/ha [1] | pest or weed control at 62.5 g/ha [1] | pest or weed control at 250 g/ha [1] | plant injury at 15.625 g/ha (corn (Zea mays) [2]) | plant injury at 62.5 g/ha (corn (Zea mays) [2]) | plant injury at 250 g/ha (corn (Zea mays) [2]) | pest or weed control at 15.625 g/ha [3] | pest or weed control at 62.5 g/ha [3] | pest or weed control at 250 g/ha [3] | pest or weed control at 15.625 g/ha [4] | pest or weed control at 62.5 g/ha [4] | pest or weed control at 250 g/ha [4] | pest or weed control at 15.625 g/ha [5] | pest or weed control at 62.5 g/ha [5] | pest or weed control at 250 g/ha [5] | pest or weed control at 15.625 g/ha [6] | pest or weed control at 62.5 g/ha [6] | pest or weed control at 250 g/ha [6] | pest or weed control at 15.625 g/ha [7] | pest or weed control at 62.5 g/ha [7] | also measured
CN1C[C@H](c2cccc(C(F)(F)F)c2)[C@@H](C(=O)Nc2cccc(O)c2F)C1=O (racemic) [Compound 1806] | 0% | 10% | 20% | 0% | 0% | 0% | 20% | 20% | 30% | 0% | 0% | 0% | 0% | 0% | 10% | 0% | 0% | 0% | 0% | 20% | pest or weed control at 250 g/ha [7]: 50%; plant injury at 15.625 g/ha (corn (Zea mays) [8]): 0%; plant injury at 62.5 g/ha (corn (Zea mays) [8]): 0%; plant injury at 250 g/ha (corn (Zea mays) [8]): 40%; pest or weed control at 15.625 g/ha [9]: 0%; pest or weed control at 62.5 g/ha [9]: 60%; pest or weed control at 250 g/ha [9]: 60%; pest or weed control at 15.625 g/ha [10]: 0%; pest or weed control at 62.5 g/ha [10]: 0%; pest or weed control at 250 g/ha [10]: 0%; pest or weed control at 15.625 g/ha [11]: 0%; pest or weed control at 62.5 g/ha [11]: 0%; pest or weed control at 250 g/ha [11]: 0%; pest or weed control at 15.625 g/ha [12]: 0%; pest or weed control at 62.5 g/ha [12]: 0%; pest or weed control at 250 g/ha [12]: 0%
Cc1c(F)cccc1NC(=O)[C@@H]1C(=O)N(C)C[C@H]1c1ccnc(OCC(F)(F)F)c1 (racemic) [Compound 1802] | 10% | 70% | 90% | 0% | 0% | 70% | 70% | 90% | 90% | 0% | 0% | 40% | 0% | 10% | 30% | 0% | 20% | 70% | 0% | 60% | pest or weed control at 250 g/ha [7]: 70%; plant injury at 15.625 g/ha (corn (Zea mays) [8]): 0%; plant injury at 62.5 g/ha (corn (Zea mays) [8]): 0%; plant injury at 250 g/ha (corn (Zea mays) [8]): 60%; pest or weed control at 15.625 g/ha [9]: 40%; pest or weed control at 62.5 g/ha [9]: 70%; pest or weed control at 250 g/ha [9]: 80%; pest or weed control at 15.625 g/ha [10]: 0%; pest or weed control at 62.5 g/ha [10]: 0%; pest or weed control at 250 g/ha [10]: 0%; pest or weed control at 15.625 g/ha [11]: 0%; pest or weed control at 62.5 g/ha [11]: 0%; pest or weed control at 250 g/ha [11]: 40%; pest or weed control at 15.625 g/ha [12]: 0%; pest or weed control at 62.5 g/ha [12]: 40%; pest or weed control at 250 g/ha [12]: 70%
